Reference: patent US20250213532A1, “5-METHOXY-N,N-[…][…] THE TREATMENT OF BIPOLAR DISORDER” (GH RESEARCH IRELAND LIMITED, priority 2022, published 2025)

Assays:
[1] = Acute psychedelic effects after inhalation; set-up: species or system human; settings: in vivo
[2] = test system: patients with clinically diagnosed postpartum depression (PPD); assay: Clinical trial in postpartum depression: safety and tolerability; type: in vivo, human; settings: one PPD patient
From the text: (§1) The patient completed all planned visit days.

[3] = Pharmacokinetics after single inhaled dose (LC-MS/MS); type: in vivo, human
Protocol: Blood samples were obtained at 1; 2; 4; 7; 10; 15; 20; 30; 45 min and 1; 1.5; 2; 3; 4 hours after administration.
PK parameters were generated by algebraic analysis of the concentration versus time plots for each individual. The analysis was carried out using the software Phoenix WinNonlin 6.3.

[4] = test system: patients with clinically diagnosed postpartum depression (PPD); assay: Clinical trial of inhaled 5-MeO-DMT in postpartum depression: BPRS; type: in vivo, human; settings: one PPD patient; for BPRS Blunted affect improvement / BPRS Blunted affect score / BPRS Conceptual disorganization improvement / BPRS Conceptual disorganization score / BPRS Disorientation improvement / BPRS Disorientation score / BPRS Grandiosity improvement / BPRS Grandiosity score / BPRS Hallucinatory behaviour improvement / BPRS Hallucinatory behaviour score / BPRS Hostility improvement / BPRS Hostility score / BPRS Mannerisms and Posturing improvement / BPRS Mannerisms and Posturing score / BPRS Motor retardation improvement / BPRS Motor retardation score / BPRS Suspiciousness improvement / BPRS Suspiciousness score / BPRS Uncooperativeness improvement / BPRS Uncooperativeness score / BPRS Unusual Thought Content improvement / BPRS Unusual Thought Content score: baseline 1; for BPRS Excitement improvement / BPRS Excitement score: baseline 2; for BPRS Emotional withdrawal improvement / BPRS Emotional withdrawal score: baseline 5; for BPRS Anxiety improvement / BPRS Anxiety score: baseline 7
From the text: as §1

COc1ccc2[nH]cc(CCN(C)C)c2c1 [5-MeO-DMT]
Onset of effect [1]: merely seconds | Tolerability of inhalation procedure [2]: well tolerated with no inhalation-related adverse events | Adverse events (cramping left abdominal pain and headache) ([2]; Day 0): mild, short-lasting and resolved spontaneously | ECG, safety laboratory analyses, CADSS ([2]; ECG 3 hours, laboratory 7 days, CADSS 3 hours, 1 day, 7 days): unremarkable | Pharmacokinetics under uptitration dosing schemes vs single dose ([3]; dosing schemes relying on uptitration): Substantially similar results | Accumulation upon repeated administration ([3]; repeated administration within a time frame of 1 to 4 hours): No accumulation | BPRS Blunted affect improvement ([4]; Day 1): 0 | BPRS Blunted affect score ([4]; Day 1): 1 | BPRS Conceptual disorganization improvement ([4]; Day 1): 0 | BPRS Conceptual disorganization score ([4]; Day 1): 1 | BPRS Disorientation improvement ([4]; Day 1): 0 | BPRS Disorientation score ([4]; Day 1): 1 | BPRS Grandiosity improvement ([4]; Day 1): 0 | BPRS Grandiosity score ([4]; Day 1): 1 | BPRS Hallucinatory behaviour improvement ([4]; Day 1): 0 | BPRS Hallucinatory behaviour score ([4]; Day 1): 1 | BPRS Hostility improvement ([4]; Day 1): 0 | BPRS Hostility score ([4]; Day 1): 1 | BPRS Mannerisms and Posturing improvement ([4]; Day 1): 0 | BPRS Mannerisms and Posturing score ([4]; Day 1): 1 | BPRS Motor retardation improvement ([4]; Day 1): 0 | BPRS Motor retardation score ([4]; Day 1): 1 | BPRS Suspiciousness improvement ([4]; Day 1): 0 | BPRS Suspiciousness score ([4]; Day 1): 1 | BPRS Uncooperativeness improvement ([4]; Day 1): 0 | BPRS Uncooperativeness score ([4]; Day 1): 1 | BPRS Unusual Thought Content improvement ([4]; Day 1): 0 | BPRS Unusual Thought Content score ([4]; Day 1): 1 | BPRS Excitement improvement ([4]; Day 1): 1 | BPRS Excitement score ([4]; Day 1): 1 | BPRS Emotional withdrawal improvement ([4]; Day 1): 4 | BPRS Emotional withdrawal score ([4]; Day 1): 1 | BPRS Depressive Mood improvement ([4]; Day 1, baseline 6): 5 | BPRS Depressive Mood score ([4]; Day 1, baseline 6): 1 | BPRS Guilt feelings improvement ([4]; Day 1, baseline 6): 5 | BPRS Guilt feelings score ([4]; Day 1, baseline 6): 1 | BPRS Somatic Concern improvement ([4]; Day 1, baseline 6): 5 | BPRS Somatic Concern score ([4]; Day 1, baseline 6): 1 | BPRS Tension score ([4]; Day 1, baseline 6): 1 | BPRS Anxiety improvement ([4]; Day 1): 6 | BPRS Anxiety score ([4]; Day 1): 1 | BPRS Blunted affect improvement ([4]; Day 7): 0 | BPRS Blunted affect score ([4]; Day 7): 1 | BPRS Conceptual disorganization improvement ([4]; Day 7): 0 | BPRS Conceptual disorganization score ([4]; Day 7): 1 | BPRS Disorientation improvement ([4]; Day 7): 0 | BPRS Disorientation score ([4]; Day 7): 1 | BPRS Grandiosity improvement ([4]; Day 7): 0 | BPRS Grandiosity score ([4]; Day 7): 1 | BPRS Hallucinatory behaviour improvement ([4]; Day 7): 0 | BPRS Hallucinatory behaviour score ([4]; Day 7): 1 | BPRS Hostility improvement ([4]; Day 7): 0 | BPRS Hostility score ([4]; Day 7): 1 | BPRS Mannerisms and Posturing improvement ([4]; Day 7): 0 | BPRS Mannerisms and Posturing score ([4]; Day 7): 1 | BPRS Motor retardation improvement ([4]; Day 7): 0 | BPRS Motor retardation score ([4]; Day 7): 1 | BPRS Suspiciousness improvement ([4]; Day 7): 0 | BPRS Suspiciousness score ([4]; Day 7): 1 | BPRS Uncooperativeness improvement ([4]; Day 7): 0 | BPRS Uncooperativeness score ([4]; Day 7): 1 | BPRS Unusual Thought Content improvement ([4]; Day 7): 0 | BPRS Unusual Thought Content score ([4]; Day 7): 1 | BPRS Excitement improvement ([4]; Day 7): 1 | BPRS Excitement score ([4]; Day 7): 1 | BPRS Emotional withdrawal improvement ([4]; Day 7): 4 | BPRS Emotional withdrawal score ([4]; Day 7): 1 | BPRS Depressive Mood improvement ([4]; Day 7, baseline 6): 5 | BPRS Depressive Mood score ([4]; Day 7, baseline 6): 1 | BPRS Guilt feelings improvement ([4]; Day 7, baseline 6): 5 | BPRS Guilt feelings score ([4]; Day 7, baseline 6): 1 | BPRS Somatic Concern improvement ([4]; Day 7, baseline 6): 5 | BPRS Somatic Concern score ([4]; Day 7, baseline 6): 1 | BPRS Tension improvement ([4]; Day 7, baseline 6): 5 | BPRS Tension score ([4]; Day 7, baseline 6): 1 | BPRS Anxiety improvement ([4]; Day 7): 6 | BPRS Anxiety score ([4]; Day 7): 1 | BPRS Blunted affect improvement ([4]; Discharge): 0 | BPRS Blunted affect score ([4]; Discharge): 1 | BPRS Conceptual disorganization improvement ([4]; Discharge): 0 | BPRS Conceptual disorganization score ([4]; Discharge): 1 | BPRS Disorientation improvement ([4]; Discharge): 0 | BPRS Disorientation score ([4]; Discharge): 1 | BPRS Grandiosity improvement ([4]; Discharge): 0 | BPRS Grandiosity score ([4]; Discharge): 1 | BPRS Hallucinatory behaviour improvement ([4]; Discharge): 0 | BPRS Hallucinatory behaviour score ([4]; Discharge): 1 | BPRS Hostility improvement ([4]; Discharge): 0 | BPRS Hostility score ([4]; Discharge): 1 | BPRS Mannerisms and Posturing improvement ([4]; Discharge): 0 | BPRS Mannerisms and Posturing score ([4]; Discharge): 1 | BPRS Motor retardation improvement ([4]; Discharge): 0 | BPRS Motor retardation score ([4]; Discharge): 1 | BPRS Suspiciousness improvement ([4]; Discharge): 0 | BPRS Suspiciousness score ([4]; Discharge): 1 | BPRS Uncooperativeness improvement ([4]; Discharge): 0 | BPRS Uncooperativeness score ([4]; Discharge): 1 | BPRS Unusual Thought Content improvement ([4]; Discharge): 0 | BPRS Unusual Thought Content score ([4]; Discharge): 1 | BPRS Excitement improvement ([4]; Discharge): 1 | BPRS Excitement score ([4]; Discharge): 1 | BPRS Emotional withdrawal improvement ([4]; Discharge): 4 | BPRS Emotional withdrawal score ([4]; Discharge): 1 | BPRS Depressive Mood improvement ([4]; Discharge, baseline 6): 5 | BPRS Depressive Mood score ([4]; Discharge, baseline 6): 1 | BPRS Guilt feelings improvement ([4]; Discharge, baseline 6): 5 | BPRS Guilt feelings score ([4]; Discharge, baseline 6): 1 | BPRS Somatic Concern improvement ([4]; Discharge, baseline 6): 5 | BPRS Somatic Concern score ([4]; Discharge, baseline 6): 1 | BPRS Tension score ([4]; Discharge, baseline 6): 1 | BPRS Anxiety improvement ([4]; Discharge): 6 | BPRS Anxiety score ([4]; Discharge): 1
